In patent US10376520B2, “Methods for the treatment of cardiovascular disorders” (Galapagos NV, priority 2015, dated 2019):

Test system: RA patients
Experiment: Atherogenic index, Study 1 (RA patients, add-on to MTX)
Format: in vivo, human
Settings: for Atherogenic index Mean CFB - 24 weeks results / Atherogenic index Mean percentage CFB - 24 weeks results / Atherogenic index Median CFB - 24 weeks results: 200 mg q.d. continued over 24 weeks
Method: As used herein, the term ‘atherogenic index’ refers to
Double-blind, placebo-controlled add on study in subjects with moderately to severely active RA who have an inadequate response to methotrexate (MTX) (oral or parenteral).
Compound 1 (dosed as a [Compound 1:HCl:3H2O]) is dosed for twelve weeks once daily (q.d.) (50 mg, 100 mg or 200 mg) or twice daily (b.i.d.) (25 mg, 50 mg or 100 mg); or placebo.
At Week 12, the subjects on placebo who have not achieved 20% improvement in swollen joint count (SJC66) and tender joint count (TJC68) are re-randomized automatically to receive Compound 1 (dosed as a [Compound 1:HCl:3H2O]) either at 100 mg q.d. or 50 mg b.i.d. doses in a blinded fashion; subjects on 50 mg q.d. who have not achieved 20% improvement in SJC66 and TJC68 will be assigned to 100 mg q.d. and subjects on 25 mg b.i.d. that have not achieved a 20% improvement in SJC66 and TJC68 will be assigned to 50 mg b.i.d. Subjects who switch treatment at week 12 are handled as if they discontinued at week 12 for the purpose of statistical analysis, whereas subjects in the other groups will maintain their randomized treatment until Week 24.
The atherogenic index has been identified to be a good predictor of cardiovascular disorders risks and is calculated as follows: […]

[1] = 2 × 25 mg (b.i.d. group), week 1
[2] = 2 × 25 mg (b.i.d. group), week 2
[3] = 2 × 25 mg (b.i.d. group), week 4
[4] = 2 × 25 mg (b.i.d. group), week 8
[5] = 2 × 25 mg (b.i.d. group), week 12
[6] = 2 × 50 mg (b.i.d. group), week 1
[7] = 2 × 50 mg (b.i.d. group), week 2
[8] = 2 × 50 mg (b.i.d. group), week 4
[9] = 2 × 50 mg (b.i.d. group), week 8
[10] = 2 × 50 mg (b.i.d. group), week 12
[11] = 2 × 100 mg (b.i.d. group), week 1

O=C(Nc1nc2cccc(-c3ccc(CN4CCS(=O)(=O)CC4)cc3)n2n1)C1CC1 [Compound 1, cyclopropanecarboxylic acid {5-[4-(1,1-dioxo-thiomorpholin-4-ylmethyl)-phenyl]-[1,2,4]triazolo[1,5-a]pyridin-2yl}-amide]
Atherogenic index Median CFB - 12 weeks results (100 mg q.d., week 12): -0.10 mmol/L | Atherogenic index Mean CFB - 24 weeks results (week 1): -0.17 mmol/L | Atherogenic index Mean percentage CFB - 24 weeks results (week 1): −2.63% | Atherogenic index Median CFB - 24 weeks results (week 1): -0.10 mmol/L | Atherogenic index Mean CFB - 24 weeks results (week 2): -0.35 mmol/L | Atherogenic index Mean percentage CFB - 24 weeks results (week 2): −7.45% | Atherogenic index Median CFB - 24 weeks results (week 2): -0.25 mmol/L | Atherogenic index Mean CFB - 24 weeks results (week 4): -0.37 mmol/L | Atherogenic index Mean percentage CFB - 24 weeks results (week 4): −7.97% | Atherogenic index Median CFB - 24 weeks results (week 4): -0.30 mmol/L | Atherogenic index Mean CFB - 24 weeks results (week 8): -0.36 mmol/L | Atherogenic index Mean percentage CFB - 24 weeks results (week 8): −7.92% | Atherogenic index Median CFB - 24 weeks results (week 8): -0.30 mmol/L | Atherogenic index Mean CFB - 24 weeks results (week 12): -0.35 mmol/L | Atherogenic index Mean percentage CFB - 24 weeks results (week 12): −6.85% | Atherogenic index Median CFB - 24 weeks results (week 12): -0.30 mmol/L | Atherogenic index Mean CFB - 24 weeks results (week 16): -0.40 mmol/L | Atherogenic index Mean percentage CFB - 24 weeks results (week 16): −8.14% | Atherogenic index Median CFB - 24 weeks results (week 16): -0.40 mmol/L | Atherogenic index Mean CFB - 24 weeks results (week 20): -0.48 mmol/L | Atherogenic index Mean percentage CFB - 24 weeks results (week 20): −8.84% | Atherogenic index Median CFB - 24 weeks results (week 20): -0.40 mmol/L | Atherogenic index Mean CFB - 24 weeks results (week 24): -0.34 mmol/L | Atherogenic index Mean percentage CFB - 24 weeks results (week 24): −6.14% | Atherogenic index Median CFB - 24 weeks results (week 24): -0.30 mmol/L | Atherogenic index Mean CFB (200 mg q.d., week 1): -0.17 mmol/L | Atherogenic index Mean percentage CFB - 12 weeks results (200 mg q.d., week 1): −3% | Atherogenic index Median CFB - 12 weeks results (200 mg q.d., week 1): -0.10 mmol/L | Atherogenic index Mean CFB (200 mg q.d., week 2): -0.35 mmol/L | Atherogenic index Mean percentage CFB - 12 weeks results (200 mg q.d., week 2): −7% | Atherogenic index Median CFB - 12 weeks results (200 mg q.d., week 2): -0.25 mmol/L | Atherogenic index Mean CFB (200 mg q.d., week 4): -0.37 mmol/L | Atherogenic index Mean percentage CFB - 12 weeks results (200 mg q.d., week 4): −8% | Atherogenic index Median CFB - 12 weeks results (200 mg q.d., week 4): -0.30 mmol/L | Atherogenic index Mean CFB (200 mg q.d., week 8): -0.36 mmol/L | Atherogenic index Mean percentage CFB - 12 weeks results (200 mg q.d., week 8): −8% | Atherogenic index Median CFB - 12 weeks results (200 mg q.d., week 8): -0.30 mmol/L | Atherogenic index Mean CFB (200 mg q.d., week 12): -0.35 mmol/L | Atherogenic index Mean percentage CFB - 12 weeks results (200 mg q.d., week 12): −7% | Atherogenic index Median CFB - 12 weeks results (200 mg q.d., week 12): -0.30 mmol/L | Atherogenic index Mean CFB [1]: 0.07 mmol/L | Atherogenic index Mean percentage CFB - 12 weeks results [1]: 3% | Atherogenic index Median CFB - 12 weeks results [1]: 0.10 mmol/L | Atherogenic index Mean CFB [2]: -0.03 mmol/L | Atherogenic index Mean percentage CFB - 12 weeks results [2]: 0% | Atherogenic index Median CFB - 12 weeks results [2]: -0.10 mmol/L | Atherogenic index Mean CFB [3]: -0.04 mmol/L | Atherogenic index Mean percentage CFB - 12 weeks results [3]: 0% | Atherogenic index Median CFB - 12 weeks results [3]: 0.00 mmol/L | Atherogenic index Mean CFB [4]: -0.08 mmol/L | Atherogenic index Mean percentage CFB - 12 weeks results [4]: −1% | Atherogenic index Median CFB - 12 weeks results [4]: -0.10 mmol/L | Atherogenic index Mean CFB [5]: 0.00 mmol/L | Atherogenic index Mean percentage CFB - 12 weeks results [5]: 2% | Atherogenic index Median CFB - 12 weeks results [5]: -0.10 mmol/L | Atherogenic index Mean CFB [6]: -0.06 mmol/L | Atherogenic index Mean percentage CFB - 12 weeks results [6]: 0% | Atherogenic index Median CFB - 12 weeks results [6]: 0.00 mmol/L | Atherogenic index Mean CFB [7]: -0.21 mmol/L | Atherogenic index Mean percentage CFB - 12 weeks results [7]: −5% | Atherogenic index Median CFB - 12 weeks results [7]: -0.10 mmol/L | Atherogenic index Mean CFB [8]: -0.14 mmol/L | Atherogenic index Mean percentage CFB - 12 weeks results [8]: −3% | Atherogenic index Median CFB - 12 weeks results [8]: -0.10 mmol/L | Atherogenic index Mean CFB [9]: -0.18 mmol/L | Atherogenic index Mean percentage CFB - 12 weeks results [9]: −3% | Atherogenic index Median CFB - 12 weeks results [9]: -0.10 mmol/L | Atherogenic index Mean CFB [10]: -0.07 mmol/L | Atherogenic index Mean percentage CFB - 12 weeks results [10]: −1% | Atherogenic index Median CFB - 12 weeks results [10]: 0.00 mmol/L | Atherogenic index Mean CFB [11]: -0.05 mmol/L | Atherogenic index Mean percentage CFB - 12 weeks results [11]: 0% | Atherogenic index Median CFB - 12 weeks results [11]: 0.00 mmol/L | Atherogenic index Mean CFB (2 × 100 mg (b.i.d. group), week 2): -0.19 mmol/L
